Experimental data taken from patent publication US20070032417A1, “Peptides and therapeutic uses thereof” (priority 2002, published 2007).
Like-named read-outs stand apart in the source and are kept apart here. *1 amine or outer side, *2 acyl side, *3 side chain or, on linkers, in order; H or OH if unused. Where a SMILES comes first, the peptide text is derived from it. Bridges are numbered along the chain shown (N, C = ends). [ ]: non-standard residue; d: D form. Hexamethylenediamine = C(CCCN[*:2])CCN[*:1]; NH(CH2)5NH = C(CCN[*:1])CCN[*:2]; Cit = NC(=O)NCCC[C@H](N)C(=O)O; X1 = O=C(CN[*:1])NCCN[*:2]

What was measured:
[1] = biological target: T1, 6-His tagged Bcl w delta C10 protein (Homo sapiens, UniProt Q92843); assay: Alphascreen competition with Bim26mer, Hexa-His detection system; assay type: binding; settings: competition with biotinylated Bim-BH3 peptide; read-out: IC50 (nM) Bcl-w ΔC10
T1 sequence (Q92843 1-183 limits assumed): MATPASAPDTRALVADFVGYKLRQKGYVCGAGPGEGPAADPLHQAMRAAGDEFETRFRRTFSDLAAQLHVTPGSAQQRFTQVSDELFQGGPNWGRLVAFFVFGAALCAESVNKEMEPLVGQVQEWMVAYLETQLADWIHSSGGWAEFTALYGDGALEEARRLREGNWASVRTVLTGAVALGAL
Excerpt: Alphascreen (Amplified Luminsecent Proximity Homogenous Assay) is a bead based technology which measures a biological interaction between molecules. The assay consists of two hydrogel coated beads which, when bought into close proximity by a binding interaction, allow a transfer of singlet oxygen from a donor bead to an acceptor bead.
Upon binding a photosensitiser in the donor bead converts ambient oxygen to a more excited singlet state. This singlet oxygen then diffuses across to react with a chemiluminescer in the acceptor bead. Fluorophores within the same bead are activated, resulting in the emission of light.
Screening of the conformationally constrained peptides was performed using the Hexa-His detection system. Non biotinylated peptides dissolved in DMSO were titrated into the assay which consisted of 6-His tagged Bcl w delta C10 protein (24 nM Final concentration) and Biotinylated Bim BH3-26 peptide, Biotin-[…] [SEQ ID NO: 40] (1.5 nM Final concentration). To this reaction mix 6His tagged (Nickel Chelate) acceptor beads and Streptavidin coated donor beads, both at 10 ug/ml Final concentration, were added.
Assay buffer contained 50 mM Hepes pH 7.4, 10 mM DTT, 100 mM NaCl, 0.05% Tween and 1 mg/ml BSA. Bead dilution buffer contained 50 mM Tris, pH 7.5, 0.01% Tween and 1 mg/ml BSA. The final DMSO concentration in the assay was 1%. Assays were performed in 384 well white Optiplates and analysed on the Perkin Elmer Fusion plate reader (Ex680, Em520-620 […]).

Bcl-2 ΔC22 = Bcl-2 ΔC22 (Homo sapiens, UniProt P10415); assay: Competition assay using biotinylated Bim-BH3 peptide, Bcl-2 ΔC22; assay type: binding; settings: for IC50: competition with biotinylated Bim-BH3 peptide; for affinity for Bcl-2 and Bcl-xL over the unconstrained 12-mer, in words: compared to the unconstrained 12-mer
Excerpt: The results are shown below:

[2] = biological target: T2, GST tagged Bcl w delta C29 protein (Homo sapiens, UniProt Q92843); assay: Alphascreen competition with Bim26mer, GST detection system; assay type: binding; settings: for change in binding affinity, in words / decrease in binding affinity: Bcl-w ΔC29, compared to the linear 16-mer
T2 sequence (Q92843 1-164 limits assumed): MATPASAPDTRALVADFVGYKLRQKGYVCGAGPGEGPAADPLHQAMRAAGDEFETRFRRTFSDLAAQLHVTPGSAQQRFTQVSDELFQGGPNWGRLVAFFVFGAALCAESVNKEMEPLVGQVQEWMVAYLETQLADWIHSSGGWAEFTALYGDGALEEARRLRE

[3] = Circular dichroism, alpha-helical content of peptides; assay type: physicochemical; settings: 30% aqueous trifluoroethanol
Procedure: Circular dichroism spectra were obtained using a Jasco Model J-710 spetropolarimeter at 20° C. using the following parameters: path length, 2 mm; step resolution, 0.1 nm; speed, 20 nm/min; accumulation, 4; response, 1 second; bandwidth, 1.0 nm. The peptides were analysed at a concentration of 0.5 mg/mL in 30% aqueous TFE. The alpha-helical content of the peptides were determined by methods described in Yang et al (1986), involving comparisons of spectra with model helical peptides.

[4] = biological target: GST tagged Bcl w delta C29 protein (UniProt Q92843); assay: AlphaScreen competition with biotinylated Bim BH3-26 peptide
[5] = competition with biotinylated Bim-BH3 peptide, 12-mers, Example 7, read-out: IC50 (nM) Bcl-w ΔC29
[6] = substituted 16-mers, Example 9, read-out: IC50 nM Bcl-w ΔC29
[7] = Puma and Bmf peptides, Example 10, read-out: IC50 nM Bcl-w ΔC29

CC[C@H](C)[C@H](NC(=O)[C@@H]1CCC(=O)NCCCCCNC(=O)CC[C@H](NC(C)=O)C(=O)N[C@@H]([C@@H](C)CC)C(=O)N[C@@H](C)C(=O)N[C@@H](CCC(N)=O)C(=O)N[C@@H](CCC(=O)O)C(=O)N[C@@H](CC(C)C)C(=O)N[C@@H](CCCNC(=N)N)C(=O)N1)C(=O)NCC(=O)N[C@@H](CC(=O)O)C(=O)N[C@@H](CCC(=O)O)C(=O)N[C@@H](Cc1ccccc1)C(N)=O [A, Ac-E-IAQELR-E-IGDEF-NH2] (Ac-EIAQELREIGDEF-NH2; linker 1-8 via NH(CH2)5NH)
IC50 [1]: 2600 nM
IC50 (Bcl-2 ΔC22): 26000 nM
IC50 [2, 5]: 1800 nM
% Helicity [3]: 33%

CC[C@H](C)[C@H](NC(C)=O)C(=O)N[C@@H](C)C(=O)N[C@@H](CCC(N)=O)C(=O)N[C@H]1CCC(=O)NCCCCCCNC(=O)CC[C@@H](C(=O)N[C@@H](Cc2ccccc2)C(N)=O)NC(=O)[C@H](CC(=O)O)NC(=O)CNC(=O)[C@H]([C@@H](C)CC)NC(=O)[C@H](CCCNC(=N)N)NC(=O)[C@H](CCCNC(=N)N)NC(=O)[C@H](CC(C)C)NC1=O [C, Ac-IAQ-E-LRRIGD-E-F-NH2] (Ac-IAQELRRIGDEF-NH2; linker 4-11 via Hexamethylenediamine)
IC50 [1]: 230 nM
affinity for Bcl-2 and Bcl-xL over the unconstrained 12-mer, in words (Bcl-2 ΔC22): outstanding increases in affinity
IC50 (Bcl-2 ΔC22): 2600 nM
IC50 [2, 5]: 120 nM
% Helicity [3]: 39%

CC[C@H](C)[C@H](NC(C)=O)C(=O)N[C@@H](C)C(=O)N[C@@H](CCC(N)=O)C(=O)N[C@H]1CCC(=O)NCC(=O)NCCNC(=O)CC[C@@H](C(=O)N[C@@H](Cc2ccccc2)C(N)=O)NC(=O)[C@H](CC(=O)O)NC(=O)CNC(=O)[C@H]([C@@H](C)CC)NC(=O)[C@H](CCCNC(=N)N)NC(=O)[C@H](CCCNC(=N)N)NC(=O)[C@H](CC(C)C)NC1=O [D] (Ac-IAQELRRIGDEF-NH2; linker 4-11 via X1)
IC50 [1]: 40 nM
IC50 (Bcl-2 ΔC22): 6900 nM
IC50 [2, 5]: 160 nM
% Helicity [3]: 16%

CC[C@H](C)[C@H](NC(C)=O)C(=O)N[C@@H](Cc1c[nH]c2ccccc12)C(=O)N[C@H](C(=O)N[C@@H](C)C(=O)N[C@@H](CCC(N)=O)C(=O)N[C@H]1CCC(=O)NCCCCCNC(=O)CC[C@@H](C(=O)N[C@@H](Cc2ccccc2)C(=O)N[C@@H](CC(N)=O)C(=O)N[C@@H](C)C(N)=O)NC(=O)[C@H](CC(=O)O)NC(=O)CNC(=O)[C@H]([C@@H](C)CC)NC(=O)[C@H](CCCNC(=N)N)NC(=O)[C@H](CCCNC(=N)N)NC(=O)[C@H](CC(C)C)NC1=O)[C@@H](C)CC [E] (Ac-IWIAQELRRIGDEFNA-NH2; linker 6-13 via NH(CH2)5NH)
IC50 ([2]; values repeated in text, read-out: binding of the constrained peptide to Bcl-w): 0.5 nM

CC[C@H](C)[C@H](NC(C)=O)C(=O)N[C@@H](C)C(=O)N[C@@H](CCC(N)=O)C(=O)N[C@H]1CCC(=O)NCCCCCNC(=O)CC[C@@H](C(=O)N[C@@H](Cc2ccccc2)C(N)=O)NC(=O)[C@H](CC(=O)O)NC(=O)CNC(=O)[C@H]([C@@H](C)CC)NC(=O)[C@H](CCCNC(=N)N)NC(=O)[C@H](CCCNC(=N)N)NC(=O)[C@H](CC(C)C)NC1=O [Peptide B, Acetyl-IAQ(E1)LRRIGD(E2)F-amide] (Ac-IAQELRRIGDEF-NH2; linker 4-11 via NH(CH2)5NH)
IC50 [1]: 65 nM
affinity for Bcl-2 and Bcl-xL over the unconstrained 12-mer, in words (Bcl-2 ΔC22): outstanding increases in affinity
IC50 (Bcl-2 ΔC22): 290 nM
IC50 [2, 5]: 150 nM
% Helicity [3]: 28%

CC[C@H](C)[C@H](NC(=O)[C@H](C)NC(=O)[C@H](CCC(N)=O)NC(C)=O)C(=O)N[C@@H](C)C(=O)N[C@@H](CCC(N)=O)C(=O)N[C@H]1CCC(=O)NCCCCCNC(=O)CC[C@@H](C(=O)N[C@@H](Cc2ccccc2)C(=O)N[C@@H](CC(N)=O)C(=O)N[C@@H](C)C(N)=O)NC(=O)[C@H](CC(=O)O)NC(=O)CNC(=O)[C@H]([C@@H](C)CC)NC(=O)[C@H](CCCNC(=N)N)NC(=O)[C@H](CCCNC(=N)N)NC(=O)[C@H](CC(C)C)NC1=O [Peptide G, Ac-QAIAQZLRRIGDZFNA-NH2] (Ac-QAIAQELRRIGDEFNA-NH2; linker 6-13 via NH(CH2)5NH)
IC50 [2]: 2.4 nM

CC[C@H](C)[C@H](NC(C)=O)C(=O)N[C@@H](Cc1c[nH]c2ccccc12)C(=O)N[C@H](C(=O)N[C@@H](C)C(=O)N[C@@H](CCC(N)=O)C(=O)N[C@@H](CCC(=O)O)C(=O)N[C@@H](CC(C)C)C(=O)N[C@@H](CCCNC(N)=O)C(=O)N[C@@H](CCCNC(N)=O)C(=O)N[C@H](C(=O)NCC(=O)N[C@@H](CC(=O)O)C(=O)N[C@@H](CCC(=O)O)C(=O)N[C@@H](Cc1ccccc1)C(=O)N[C@@H](CC(N)=O)C(=O)N[C@@H](C)C(N)=O)[C@@H](C)CC)[C@@H](C)CC [Peptide T] (Ac-IWIAQEL[Cit][Cit]IGDEFNA-NH2)
IC50 [2, 6]: 20 nM

Ac-AWIAQELRRIGDEFNA-NH2 [O]
change in binding affinity, in words [2]: drop in binding
IC50 [2, 6]: 22 nM

Ac-IAIAQELRRIGDEFNA-NH2 [P]
change in binding affinity, in words [2]: drop in binding
IC50 [2, 6]: 42 nM

Ac-IAQELRRIGDEF-NH2 [Linear 12mer, reference compound]
IC50 [1]: 870 nM
IC50 (Bcl-2 ΔC22): 240000 nM
IC50 [2, 5]: 4700 nM
% Helicity [3]: 9%

Ac-IFIAQELRRIGDEFNA-NH2 [N]
change in binding affinity, in words [2]: drop in binding
IC50 [2, 6]: 11 nM

Ac-IRIAQELRRIGDEFNA-NH2 [Q]
change in binding affinity, in words [2]: drop in binding
IC50 [2, 6]: 17 nM

Ac-IWAAQEARRAGDEANA-NH2 [M]
IC50 [2, 6]: 64000 nM

Ac-IWAAQELRRIGDEFNA-NH2 [Peptide I]
change in binding affinity, in words [2]: slight decrease in binding affinity
decrease in binding affinity [2]: 100 fold
IC50 [2, 6]: 360 nM

Ac-IWIAQEARRIGDEFNA-NH2 [Peptide J]
decrease in binding affinity [2]: about 1000 fold
IC50 [2, 6]: 3700 nM

Ac-IWIAQELRRAGDEFNA-NH2 [Peptide K]
decrease in binding affinity [2]: 3 fold
IC50 [2, 6]: 7.3 nM

Ac-IWIAQELRRIGDEANA-NH2 [Peptide L]
decrease in binding affinity [2]: 1,000 fold
IC50 [2, 6]: 3500 nM

Ac-IWIAQELRRIGDEFAA-NH2 [Peptide S]
change in binding affinity, in words [2]: only slight, if any, loss of binding affinity
IC50 [2, 6]: 3.3 nM

Ac-IWIAQELRRIGDEFAN-NH2 [Peptide R]
IC50 [2, 6]: 12 nM

Ac-IWIAQELRRIGDEFNA-NH2 [linear 16-mer, reference compound]
IC50 ([2]; competition with biotinylated BIM-BH3 peptide, 16-mers, Example 8, read-out: IC50 (nM) Bcl-w ΔC29): 2.5 nM

Ac-IWIAQELRRIGDEFNN-NH2 [Peptide U]
decrease in binding affinity [2]: two
IC50 [2, 6]: 5.8 nM

Ac-IWIAQQLRRIGDQFNA-NH2 [H]
IC50 [2, 6]: 3.3 nM

Ac-REIGAQLRRMADDLNA-NH2 [Puma]
IC50 [2, 7]: 52 nM

Ac-VQIARKLQAIADQFHR-NH2 [Bmf]
IC50 [2, 7]: 0.25 nM

Ac-IWIAQELRRIGDEANA-NH2 [Peptide L (linear), Ac-…-NH2]
fold decrease in affinity (against the linear 16-mer) [4]: 1000 fold

Ac-IWAAQELRRIGDEFNA-NH2 [Peptide I (linear), Ac-…-NH2]
fold decrease in binding affinity (against the linear 16-mer) [4]: 100 fold

Ac-IWIAQELRRIGDEFNN-NH2 [Peptide U (linear), Ac-…-NH2]
fold loss of binding affinity (against the linear 16-mer) [4]: 2 fold

Ac-IWIAQEARRIGDEFNA-NH2 [Peptide J (linear), Ac-…-NH2]
fold decrease in affinity (against the linear 16-mer) [4]: 1000 fold

Ac-IWAAQEARRAGDEANA-NH2 [Peptide M (linear), Ac-…-NH2]
fold decrease in binding affinity (against the linear 16-mer) [4]: 25000 fold

Ac-IWIAQELRRAGDEFNA-NH2 [Peptide K (linear), Ac-…-NH2]
fold decrease in affinity (against the linear 16-mer) [4]: 3 fold
